Our source for the Control time values is US20220151227A1, “CARNIVOROUS WASP CONTROL AGENT” (EARTH CORPORATION, priority 2019, published 2022).

The test system of one test is Polistes rothneyi. Description: Control Test 1: aerosol sprayed on one test wasp in metal mesh cage, control time. It is filed as in vivo. The following applies: 2 g aerosol sprayed 1 second from approx. 30 cm, observed up to 180 seconds. From the text:
(§1) Ten grams of ethyl lactate, which is an active ingredient under the present invention, was put in an aerosol can as a liquid concentrate, and then a valve part was installed on the can, after which dimethyl ether was filled through the valve part as a propellant until the weight ratio of the liquid concentrate and the propellant became 1:2, and then a spray button was installed, to obtain 30 g of aerosol test sample in Example 1.
(§2) In Examples 2 to 28 and Comparative Examples 1 to 6, the liquid concentrates shown in Table 1 below were used to obtain 30 g of respective test samples in the same manner as in Example 1.
(§3) After spraying, the time it took for the test wasp to stop behaving normally and begin grooming abnormally and showing agitated behaviors (flapping of wings), and eventually drop to the bottom of the metal gauge, was measured as the control time (in seconds). In Table 1, “IPA” stands for isopropanol, while “%” refers to % by weight.
(§4) It should be noted that “turpentine oil” in Examples 2 and 3 is a plant-based essential oil containing 85% by weight or more of α-pinene which is an active ingredient under the present invention, while Comparative Example 5 contains 1% by weight of isopropyl myristate as a dissolving aid.
Regarding α-turpentine [Example 9], the Control time is less than 1 s.

Turning to `CC(C)[C@]12CC(=O)[C@H](C)[C@H]1C2` [Example 12, Thujone], the Control time is less than 1 s.

Regarding `CCOC(=O)c1ccccc1` [Example 7, Ethyl benzoate], the Control time is less than 1 s.

`CC(C)=CCCC(C)=CC=O` [Example 11, Citral] came in with a Control time of less than 1 s.

Compound `CCCCCC(O)CC` (stereo not drawn) [Example 13, 3-octanol] displayed a Control time of less than 1 s.

`O=C(Cc1ccccc1)OCc1ccccc1` [Example 14, Benzyl phenyl acetate]: the Control time is less than 1 s.

The compound `CC12CCC(CC1)C(C)(C)O2` [Example 20, Cineol] came in with a Control time of less than 1 s.

As for `CC(C)=C1CC[C@@H](C)CC1=O` [Example 10, Pulegone], the Control time is less than 1 s.

`COC(=O)c1ccccc1` [Example 6, Methyl benzoate] showed a Control time of less than 1 s.

In the case of `CC(C)=CCCC(C)=CCCC(C)=CCO` [Example 8, Farnesol], the Control time was less than 1 s.

The subject of another test is Vespa simillima. The test is described as above. It is filed as in vivo. The following applies: 2 g aerosol sprayed 1 second from approx. 30 cm, observed up to 180 seconds.
Source text: as §1, §2, §3, §4
For `CC(=O)OC1CC(C)CCC1C(C)C` (stereo not drawn) [compound 2, Menthyl acetate], the Control time is more than 180 s.

A further test relates to Vespa mandarinia. The description is as above. Format: in vivo. The following applies: 2 g aerosol sprayed 1 second from approx. 30 cm, observed up to 180 seconds.
Source text: as §1, §2, §3, §4
Compound `C=CC(C)(O)CCC=C(C)C` (stereo not drawn) [compound 3, Linalool] came in with a Control time of more than 180 s.

Another test has as its system Polistes jokahamae. The test is described as above. It is filed as in vivo. The note with it: 2 g aerosol sprayed 1 second from approx. 30 cm, observed up to 180 seconds.
Source text: as §1, §2, §3, §4
Take `CCCCOC(=O)C(C)O` (stereo not drawn) [Example 27, n-butyl lactate]: the Control time was less than 1 s.

On to `CC(C)[C@@H]1CC[C@@H](C)CC1=O` [Example 4, Menthone], for which the Control time is less than 1 s.

In turn, `CC(C)O` [compound 6, IPA, reference compound] had a Control time of more than 180 s.

For the compound `CC1CCC(C(C)C)C(O)C1` (stereo not drawn) [Example 21, Menthol], the Control time is less than 1 s.

With `C=C(C)C1CC=C(C)C(=O)C1` (stereo not drawn) [Example 23, Carvone], the Control time was less than 1 s.

`COC(=O)C(C)O` (stereo not drawn) [Example 26, Methyl lactate]: the Control time was less than 1 s.

The compound `CCOC(=O)C(C)O` (stereo not drawn) [Example 1, Ethyl lactate] yielded a Control time of less than 1 s.

`COC(=O)Cc1ccccc1` [Example 28, Methyl phenyl acetate]: the Control time was less than 1 s.

A further test has as its system Vespa ducalis. Described as above. It is filed as in vivo. The note with it: 2 g aerosol sprayed 1 second from approx. 30 cm, observed up to 180 seconds.
Source text: as §1, §2, §3, §4
Compound `CC(C)[C@@H]1CC[C@@H](C)CC1=O` [Example 5, Menthone] gave a Control time of less than 1 s.
